Experiment [1] relates to Tamoxifen-resistant MCF7 human xenograft tumors. As to the kind of experiment: Anti-tumor efficacy in tamoxifen-resistant MCF7 human xenograft tumors. The experiment is classed as in vivo. The note with it: tamoxifen-resistant MCF7 xenograft (passage 9), BALB/c nude mouse, treated for 28; versus each agent alone. The method, then:
Tamoxifen-resistant MCF-7 cells were subcutaneously implanted to establish cell line-derived xenograft tumors. […] This tumor was then defined as passage 0. The tumor fragments were constantly implanted into new animals (per passage) with 30 mg/kg Tamoxifen treatment. For the efficacy study, the passage 9 tamoxifen-resistant tumor fragments (˜30 mm3) were inoculated subcutaneously at the right flank of each BALB/c nude mouse, which has been implanted with 17β-estradiol (0.36 mg) tablet subcutaneously in the left flank three days before. When the average tumor volume reached approximately 175 mm3, the animals were randomized and treated for 28. Tamoxifen-resistant MCF7 human xenograft tumors were treated with an ER degrader 160b alone, or with a CDK4/6 inhibitor, Palbociclib, alone, or with the combination of ER degrader 160b and Palbociclib.
A general note: In xenograft studies the graft and the host belong to different species.

Experiment [2] relates to ER-positive T47D cells. As to the kind of experiment: T47D cell growth inhibition (CellTiter-Glo, 6 days), ER degrader plus CDK4/6 inhibitor. In kind it is cell-based, human.
The subject of experiment [3] is MCF7 human xenograft tumors. The experiment can be described thus: Anti-tumor efficacy in MCF7 human xenograft tumors. In kind it is in vivo. The note with it: BALB/c nude mouse, 17β-estradiol tablet, treated for 21 days, versus each agent alone. The method, then: MCF-7 cells, a breast cancer cell cline, (10×10^6) in 0.1 mL of PBS mixed with 0.1 mL matrigel (total 0.2 mL) were inoculated subcutaneously at the right flank of each mouse, which has been implanted with 17β-estradiol (0.18 mg) tablet subcutaneously in the left flank three days before. When the average tumor volume reaches approximately 175 mm^3, the animals were randomized and treatment was started.
MCF-7 tumor cells (10×10^6) in 0.1 mL of PBS mixed with 0.1 mL matrigel (total 0.2 mL) were inoculated subcutaneously at the right flank of each BALB/c nude mouse, which has been implanted with 17β-estradiol (0.18 mg) tablet subcutaneously in the left flank three days before. When the average tumor volume reached approximately 175 mm^3, the animals were randomized and treated for 21 days with an ER degrader 160a alone, or with a CDK4/6 inhibitor, Palbociclib, alone, or with the combination of ER degrader 160a and Palbociclib.
MCF-7 tumor cells (10×10^6) in 0.1 mL of PBS mixed with 0.1 mL matrigel (total 0.2 mL) were inoculated subcutaneously at the right flank of each BALB/c nude mouse, which has been implanted with 17β-estradiol (0.18 mg) tablet subcutaneously in the left flank three days before. […]

As to `CC/C(=C(\c1ccc(O)cc1)c1ccc(N2CCC(CN3CCN(c4ccc5c(c4)CN([C@H]4CCC(=O)NC4=O)C5=O)CC3)CC2)cc1)c1ccccc1` [160b], the “tumor growth inhibition, combination with Palbociclib” value in experiment [1] is listed as “synergizes with CDK4/6 inhibitor Palbociclib in vivo to inhibit tumor growth with greater efficacy than the ER degrader or CDK4/6 inhibitor alone”.

As to `CCC(=C(c1ccc(O)cc1)c1ccc(N2CCC(CN3CCN(c4ccc5c(c4)CN([C@H]4CCC(=O)NC4=O)C5=O)CC3)CC2)cc1)c1ccccc1` [160a, (E)/(Z)-(S)-3-(5-(4-((1-(4-(1-(4-hydroxyphenyl)-2-phenylbut-1-en-1-yl)phenyl)piperidin-4-yl)methyl)piperazin-1-yl)-1-oxoisoindolin-2-yl)piperidine-2,6-dione], the “cell growth inhibition, combination with Abemaciclib” value in experiment [2] (ER degrader at increasing concentrations combined with Abemaciclib 10, 30, 100 nM, versus single agent) was “synergizes with CDK4/6 inhibitor Abemaciclib in vitro to inhibit cell growth with greater efficacy than the ER degrader alone”. In addition, the “cell growth inhibition, combination with Palbociclib” value in experiment [2] (ER degrader at increasing concentrations combined with Palbociclib 10, 30, 100 nM, versus each agent alone) is recorded as “synergizes with CDK4/6 inhibitor Palbociclib in vitro to inhibit cell growth with greater efficacy than the ER degrader or CDK4/6 inhibitor alone”. Also, the “tumor growth inhibition, combination with Palbociclib” value in experiment [3] is given as “synergizes with CDK4/6 inhibitor Palbociclib in vivo to inhibit tumor growth with greater efficacy than the ER degrader or CDK4/6 inhibitor alone”.

Values taken from US11642342B2, “Combinations of estrogen receptor degraders and cyclin-dependent kinase inhibitors for treating cancer” (Accutar Biotechnology, priority 2019, dated 2023).
